According to patent US7691572B2, “Method and kit for detecting resistance to antiviral drugs” (priority 1998, dated 2010):

Assays:
Assay type in all cases: biochemical
[1] = tested on: plasma HIV-1 reverse transcriptase; experiment: Amp-RT assay, inhibition by 3TC-TP, plasma samples of patients; settings: for Inhibition of RT(%): 5 uM 3TC-TP
Method: (§1) The phenotypic assay used in this example was based on the analysis of the susceptibility of HIV-1 reverse transcriptase activity from plasma to inhibition by 3TC-TP.
For culture supernatant, 10 μl were directly used for the reverse transcriptase reaction. The analysis of phenotypic resistance in plasma samples was made in plasma-free virus pellets as described in the protocol set forth in FIG. 1B.
(§2) Amp-RT detects reverse transcriptase activity by using a heterologous RNA template derived from the encephalomyocarditis virus (EMCV), a complementary DNA oligoprimer, and PCR amplification of reverse transcriptase-generated EMCV cDNA. […] To determine the susceptibility of the reverse transcriptase to 3TC-TP, an additional Amp-RT reaction was made in the presence of 3TC-TP, with concentrations of 3TC-TP ranging from 0.1 to 10 μM. […] PCR amplification of reverse transcriptase products was made as follows after the addition of 200 μM of each dNTP. A volume of 50 μl of PCR buffer containing 2.5 units of Taq polymerase, 100 ng of the sense primer EMCF1, and 200 μM of each dNTP was added to the reverse transcriptase mixture.
A total of 30 EDTA-plasma samples from 15 HIV-1-infected patients from the Veteran Administration Medical Center, Decatur, Ga., were studied. The samples were collected from patients before and during anti-retroviral therapy with 3TC. The Amp-RT-based phenotypic assay was done under code with respect to date of serial bleed and reverse transcriptase genotype. One plasma specimen from a blood donor who tested antibody negative for HIV-1/2, HTLV-I/II was used as an assay negative control.

[2] = tested on: HIV-1 reverse transcriptase; experiment: Amp-RT assay, inhibition by 3TC-TP, reference viruses
Source text: as §1
The assay detects reverse transcriptase activity by using a nonretroviral heteropolymeric RNA template derived from the encephalomyocarditis virus (EMCV) genome, and a complementary EMCV-specific DNA oligoprimer. The RT-generated EMCV cDNA is detected by PCR amplification and internal oligoprobing of the PCR product with an EMCV-specific probe.
as §2
Wild type HIV-1SUM9, and multiple dideoxy nucleoside-resistant HIV-1SUM8 (Q151M mutation), HIV-1SUM12 (F77L/F116Y/Q151M) and HIV-1SUM13 (A62V/V751/F77L/F116Y/Q151M) MICs were provided by Dr. Mitsuya as described by Shirasaka et al., Proc. Natl. Acad. Sci. USA 92: 2398-2402 (1995). The synthesis and preparation of 3TC-TP were carried out as described by Schinazi et al., Antimicrob. Agents Chemother. 36: 2423-2431 (1992). The crude 3TC-5-TP was purified by FPLC using a HiLoad 26/10Q Sepharose Fast Flow™ Pharmacia chromatography column (Pharmacia, Piscataway, N.J.) and gradient of TEAE buffer (pH 7.0). The compound was characterized by UV spectroscopy, proton and phosphorous NMR, mass spectroscopy and HPLC.
Inhibition of reverse transcriptase by 3TC-TP results from the ability of 3TC-TP to act as a competitive inhibitor for 2′-deoxycytidine-5′-triphosphate (dCTP) and chain terminator as described by Arts and Wainberg, Antimicrob. Agents Chemother. 40: 527-540 (1996). To determine the optimal ratio of 3TC-TP and dCTP needed to inhibit wild type HIV-1 reverse transcriptase, but not 3TC-resistant reverse transcriptase, reverse transcriptase were tested from a wild type (xxBRUpitt) and a 3TC-resistant (M184Vpitt) HIV-1 in the presence of increasing concentrations of 3TC-TP (from 0.1 to 10 μM) and a fixed concentration of dCTP (5 μM).

[3] = molecular target: HIV-1 RT (Human immunodeficiency virus type 1 group M subtype B, UniProt P04585); experiment: Amp-RT assay, AZT-TP and other NRTI-TPs, reference viruses; parameters: The susceptibility of HIV-1 RT activity from viral isolates or plasma samples; made in house
[4] = 5 μM 3TC-TP, pretreatment samples (n=12)
[5] = sample 1E, 12 weeks, AZT/3TC, V/M184
[6] = sample 1F, 18 weeks, AZT/3TC, V184
[7] = sample 2F, 12 weeks, AZT/3TC, V184
[8] = sample 3F, 12 weeks, AZT/3TC, M/V184
[9] = sample 3G, 21 weeks, AZT/3TC, V184
[10] = sample 6B, 12 weeks, AZT/3TC, V184
[11] = sample 8B, 8 weeks, AZT/3TC, V184
[12] = sample 9F, 12 weeks, AZT/3TC, V184
[13] = sample 10A, 4 weeks, AZT/3TC, M184
[14] = sample 10C, 12 weeks, AZT/3TC, M/V184
[15] = sample 10G, 52 weeks, AZT/3TC, V184
[16] = sample 11A, 12 weeks, AZT/3TC, V/M184
[17] = sample 11C, 36 weeks, AZT/3TC, V184
[18] = sample 12E, 28 weeks, AZT/3TC, V184
[19] = sample 13A, Pre, d4T, M184, N69, R70
[20] = sample 13F, 60 weeks, d4T/3TC/IND, V184
[21] = sample 14A, 1 week, AZT/3TC, M184, D69
[22] = sample 14F, 44 weeks, IND/3TC, V184
[23] = sample 15A, Pre, AZT, M184, D69
[24] = sample 15D, 40 weeks, AZT/3TC/IND, V184
[25] = 5 μM 3TC-TP, samples with 184V only
[26] = 5 μM 3TC-TP, samples with mixtures of wild type and resistant genotypes
[27] = 5 μM 3TC-TP, wild type HIV-1, 10^−6 units of RT activity

Nc1ccn([C@@H]2CS[C@H](COP(=O)(O)OP(=O)(O)OP(=O)(O)O)O2)c(=O)n1 [3TC-TP, 3TC-5′-triphosphate]
mean reverse transcriptase inhibition [1, 4]: 98.7%
median reverse transcriptase inhibition [1, 4]: 99.8%
Inhibition of RT(%) ([1]; sample 1B, Pre, AZT/ddC, M184): 100%
Inhibition of RT(%) [1, 5]: 75.6%
Inhibition of RT(%) [1, 6]: 75.9%
Inhibition of RT(%) ([1]; sample 2B, Pre, AZT/ddC, M184): 99.7%
Inhibition of RT(%) [1, 7]: 68%
Inhibition of RT(%) ([1]; sample 3B, Pre, AZT, M184): 99.4%
Inhibition of RT(%) [1, 8]: 92.3%
Inhibition of RT(%) [1, 9]: 0%
Inhibition of RT(%) ([1]; sample 4A, Pre, AZT, M184): 99.9%
Inhibition of RT(%) ([1]; sample 5A, Pre, AZT, M184): 100%
Inhibition of RT(%) ([1]; sample 6A, Pre, None, M184): 99.9%
Inhibition of RT(%) [1, 10]: 34.7%
Inhibition of RT(%) ([1]; sample 7A, Pre, None, M/I184): 100%
Inhibition of RT(%) ([1]; sample 8A, Pre, AZT, M184): 99.9%
Inhibition of RT(%) [1, 11]: 15%
Inhibition of RT(%) ([1]; sample 9A, Pre, d4T, M184): 97.8%
Inhibition of RT(%) [1, 12]: 47%
Inhibition of RT(%) [1, 13]: 87.8%
Inhibition of RT(%) [1, 14]: 0%
Inhibition of RT(%) [1, 15]: 0%
Inhibition of RT(%) [1, 16]: 29.1%
Inhibition of RT(%) [1, 17]: 58.5%
Inhibition of RT(%) ([1]; sample 12A, Pre, AZT, M184): 96.3%
Inhibition of RT(%) [1, 18]: 70%
Inhibition of RT(%) [1, 19]: 95.9%
Inhibition of RT(%) [1, 20]: 0%
Inhibition of RT(%) [1, 21]: 94.7%
Inhibition of RT(%) [1, 22]: 0%
Inhibition of RT(%) [1, 23]: 95.5%
Inhibition of RT(%) [1, 24]: 0%
reverse transcriptase inhibition values ([1]; 5 μM 3TC-TP, samples after 1 to 60 weeks of therapy with 3TC (n=18)): less than 95%
mean inhibition [1, 25]: 30.8%
median inhibition [1, 25]: 24.9%
mean inhibition [1, 26]: 49.3%
median inhibition [1, 26]: 52.4%
RT activity With 3TC-TP (5 uM) [1, 5]: 5.1 × 10^−7 units/ml
RT activity With 3TC-TP (5 uM) [1, 6]: 3.3 × 10^−8 units/ml
RT activity With 3TC-TP (5 uM) ([1]; sample 2B, Pre, AZT/ddC, M184): 6.3 × 10^−9 units/ml
RT activity With 3TC-TP (5 uM) [1, 7]: 4.7 × 10^−7 units/ml
RT activity With 3TC-TP (5 uM) ([1]; sample 3B, Pre, AZT, M184): 1.7 × 10^−8 units/ml
RT activity With 3TC-TP (5 uM) [1, 8]: 1.2 × 10^−9 units/ml
RT activity With 3TC-TP (5 uM) [1, 9]: 1.0 × 10^−8 units/ml
RT activity With 3TC-TP (5 uM) ([1]; sample 4A, Pre, AZT, M184): 1.2 × 10^−10 units/ml
RT activity With 3TC-TP (5 uM) ([1]; sample 6A, Pre, None, M184): 3.6 × 10^−8 units/ml
RT activity With 3TC-TP (5 uM) [1, 10]: 1.5 × 10^−5 units/ml
RT activity With 3TC-TP (5 uM) ([1]; sample 8A, Pre, AZT, M184): 5.7 × 10^−8 units/ml
RT activity With 3TC-TP (5 uM) [1, 11]: 4.3 × 10^−5 units/ml
RT activity With 3TC-TP (5 uM) ([1]; sample 9A, Pre, d4T, M184): 6.3 × 10^−8 units/ml
RT activity With 3TC-TP (5 uM) [1, 12]: 1.1 × 10^−6 units/ml
RT activity With 3TC-TP (5 uM) [1, 13]: 9.1 × 10^−6 units/ml
RT activity With 3TC-TP (5 uM) [1, 14]: 1.9 × 10^−7 units/ml
RT activity With 3TC-TP (5 uM) [1, 15]: 3.5 × 10^−5 units/ml
RT activity With 3TC-TP (5 uM) [1, 16]: 1.3 × 10^−7 units/ml
RT activity With 3TC-TP (5 uM) [1, 17]: 7.0 × 10^−8 units/ml
RT activity With 3TC-TP (5 uM) ([1]; sample 12A, Pre, AZT, M184): 9.2 × 10^−7 units/ml
RT activity With 3TC-TP (5 uM) [1, 18]: 5.1 × 10^−7 units/ml
RT activity With 3TC-TP (5 uM) [1, 19]: 6.2 × 10^−8 units/ml
RT activity With 3TC-TP (5 uM) [1, 20]: 7.4 × 10^−5 units/ml
RT activity With 3TC-TP (5 uM) [1, 21]: 1.3 × 10^−8 units/ml
RT activity With 3TC-TP (5 uM) [1, 22]: 5.1 × 10^−9 units/ml
RT activity With 3TC-TP (5 uM) [1, 23]: 4.0 × 10^−6 units/ml
RT activity With 3TC-TP (5 uM) [1, 24]: 2.4 × 10^−10 units/ml
inhibition of reverse transcriptase ([2]; 5 μM 3TC-TP, 3TC-resistant HIV-1 (M184Vpitt), high or low input of RT): No significant inhibition
inhibition of RT activity ([2]; 5 μM 3TC-TP, mixture with 25% 3TC-resistant (M184Vpitt) virus in wild type xxBRUpitt): 87%
inhibition of RT activity ([2]; 5 μM 3TC-TP, mixture with 75% 3TC-resistant (M184Vpitt) virus in wild type xxBRUpitt): 26%
drop in Amp-RT virus load [2, 27]: 2.35 log10
residual reverse transcriptase activity (of control without 3TC-TP) [2, 27]: 0.4%
inhibition of reverse transcriptase ([2]; 5 μM 3TC-TP, wild type xxBRUpitt, 10^−7 and 10^−8 units of RT activity): complete inhibition
IC90 relative to reference viruses ([2]; HIV-1SUM8 (Q151M)): approximately two-fold higher
increase in IC50 compared to wild type virus ([2]; HIV-1SUM12, three MD resistance mutations (F77L/F116Y/Q151M)): six-
increase in IC50 compared to wild type virus ([2]; HIV-1SUM13, all five MD resistance mutations): eight-fold

Cc1cn([C@H]2C[C@H](N=[N+]=[N-])[C@@H](COP(=O)(O)OP(=O)(O)OP(=O)(O)O)O2)c(=O)[nH]c1=O [AZT-TP, AZT-triphosphate]
% inhibition (SEM) ([3]; 1 μM AZT-TP, HIV-1HXB2, WT): 98 (±2) %
IC50 ([3]; WT HIV-1HXB2): 500 nM
IC90 ([3]; WT HIV-1HXB2): 900 nM
